Results reported in patent US9745285B2, “Heteroaryl substituted pyrazoles” (BAYER PHARMA AKTIENGESELLSCHAFT, priority 2013, dated 2017).

How the values were obtained:
[1] = biological target: T1, catalytic domain of human Bub1 (amino acids 704-1085) (Homo sapiens, UniProt O43683); assay: Bub1 kinase assay (TR-FRET); assay type: biochemical; settings: 10 μM ATP, 1 μM peptide substrate, median value, read-out: Biological Assay 1: Bub1 kinase assay median IC50
T1 construct: catalytic domain of human Bub1 (amino acids 704-1085); His6 (N); made in house; host or cells: Hi5 insect cells
T1 sequence (O43683 704-1085): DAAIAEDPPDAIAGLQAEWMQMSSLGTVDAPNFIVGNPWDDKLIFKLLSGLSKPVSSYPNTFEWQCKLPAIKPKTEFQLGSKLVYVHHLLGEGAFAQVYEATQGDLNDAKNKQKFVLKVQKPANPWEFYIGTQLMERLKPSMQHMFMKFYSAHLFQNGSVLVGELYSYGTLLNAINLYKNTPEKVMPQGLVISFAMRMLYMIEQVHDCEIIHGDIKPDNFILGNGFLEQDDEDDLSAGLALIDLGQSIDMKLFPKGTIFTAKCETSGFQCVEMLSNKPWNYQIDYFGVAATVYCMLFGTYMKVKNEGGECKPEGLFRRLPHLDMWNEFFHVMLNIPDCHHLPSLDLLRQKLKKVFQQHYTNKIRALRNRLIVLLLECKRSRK
Source text: Bub1-inhibitory activities of compounds described in the present invention were quantified using a time-resolved fluorescence energy transfer (TR-FRET) kinase assay which measures phosphorylation of the synthetic peptide Biotin-Ahx-VLLPKKSFAEPG (C-terminus in amide form), purchased from e.g. Biosyntan (Berlin, Germany) by the (recombinant) catalytic domain of human Bub1 (amino acids 704-1085), expressed in Hi5 insect cells with an N-terminal His6-tag and purified by affinity—(Ni-NTA) and size exclusion chromatography.
In a typical assay 11 different concentrations of each compound (0.1 nM, 0.33 nM, 1.1 nM, 3.8 nM, 13 nM, 44 nM, 0.15 μM, 0.51 μM, 1.7 μM, 5.9 μM and 20 μM) were tested in duplicate within the same microtiter plate. To this end, 100-fold concentrated compound solutions (in DMSO) were previously prepared by serial dilution (1:3.4) of 2 mM stocks in a clear low volume 384-well source microtiter plate (Greiner Bio-One, Frickenhausen, Germany), from which 50 nL of compounds were transferred into a black low volume test microtiter plate from the same supplier. Subsequently, 2 μL of Bub1 (the final concentration of Bub1 was adjusted depending on the activity of the enzyme lot in order to be within the linear dynamic range of the assay: typically 200 ng/mL were used) in aqueous assay buffer [50 mM Tris/HCl pH 7.5, 10 mM magnesium chloride (MgCl2), 200 mM potassium chloride (KCl), 1.0 mM dithiothreitol (DTT), 0.1 mM sodium orthovanadate, 1% (v/v) glycerol, 0.01% (w/v) bovine serum albumine (BSA), 0.005% (v/v) Trition X-100 (Sigma), 1× Complete EDTA-free protease inhibitor mixture (Roche)] were added to the compounds in the test plate and the mixture was incubated for 15 min at 22° C. to allow pre-equilibration of the putative enzyme-inhibitor complexes before the start of the kinase reaction, which was initiated by the addition of 3 μL 1.67-fold concentrated solution (in assay buffer) of adenosine-triphosphate (ATP, 10 μM final concentration) and peptide substrate (1 μM final concentration). […] Subsequently, the amount of product was evaluated by measurement of the resonance energy transfer from the Eu-chelate-antibody complex recognizing the Phosphoserine residue to the streptavidin-XL665 bound to the biotin moiety of the peptide. To this end, the fluorescence emissions at 620 nm and 665 nm after excitation at 330-350 nm were measured in a TR-FRET plate reader, e.g. a Rubystar or Pherastar (both from BMG Labtechnologies, Offenburg, Germany) or a Viewlux (Perkin-Elmer) and the ratio of the emissions (665 nm/622 nm) was taken as indicator for the amount of phosphorylated substrate. […] IC50 values were calculated by fitting the normalized inhibition data to a 4-parameter logistic equation (Minimum, Maximum, IC50, Hill; Y=Max+(Min−Max)/(1+(X/IC50)Hill)).

[2] = tested on: HeLa human cervical cancer cell line; assay: Proliferation assay (HeLa cell line, crystal violet); assay type: cell-based; settings: 96 h, HeLa cells, 4 days incubation, crystal violet staining, median value, read-out: Biological Assay 2: Proliferation assay (HeLa cell line) median IC50
Protocol: Cultivated tumor cells (cells were ordered from ATCC) were plated at a density of 3000 cells/well in a 96-well multititer plate in 200 μL of growth medium supplemented 10% fetal calf serum. After 24 hours, the cells of one plate (zero-point plate) were stained with crystal violet (see below), while the medium of the other plates was replaced by fresh culture medium (200 μL), to which the test substances were added in various concentrations (0 μM, as well as in the range of 0.001-10 μM; the final concentration of the solvent dimethyl sulfoxide was 0.5%). The cells were incubated for 4 days in the presence of test substances. Cell proliferation was determined by staining the cells with crystal violet: the cells were fixed by adding 20 μL/measuring point of an 11% glutaric aldehyde solution for 15 minutes at room temperature. After three washing cycles of the fixed cells with water, the plates were dried at room temperature. The cells were stained by adding 100 μL/measuring point of a 0.1% crystal violet solution (pH 3.0). […] Absorption was determined by photometry at a wavelength of 595 nm.
The change of cell number, in percent, was calculated by normalization of the measured values to the absorption values of the zero-point plate (=0%) and the absorption of the untreated (0 μm) cells (=100%). The IC50 values were determined by means of a 4 parameter fit.

COc1cnc(-c2nn(Cc3c(Cl)cnn3C)c(C3CC3)c2C)nc1Nc1ccncc1 [Example 2-1-1, 2-{1-[(4-chloro-1-methyl-1H-pyrazol-5-yl)methyl]-5-cyclopropyl-4-methyl-1H-pyrazol-3-yl}-5-methoxy-N-(pyridin-4-yl)pyrimidin-4-amine]
IC50 [1]: 9 nM

COc1cnc(-c2nn(Cc3c(C)noc3C)c(C3CC3)c2C)nc1Nc1ccncc1C(N)=O [Example 2-2-1, 4-[(2-{5-cyclopropyl-1-[(3,5-dimethyl-1,2-oxazol-4-yl)methyl]-4-methyl-1H-pyrazol-3-yl}-5-methoxypyrimidin-4-yl)amino]nicotinamide]
IC50 [1]: 16 nM | IC50 [2]: > 10000 nM

CCOC(=O)c1cnccc1Nc1nc(-c2nn(Cc3nnc(C)o3)c(C3CC3)c2C)ncc1OC [Example 2-4-2, ethyl 4-[(2-{5-cyclopropyl-4-methyl-1-[(5-methyl-1,3,4-oxadiazol-2-yl)methyl]-1H-pyrazol-3-yl}-5-methoxypyrimidin-4-yl)amino]pyridine-3-carboxylate]
IC50 [1]: 2100 nM

COc1cnc(-c2nn(Cc3nnc(C)o3)c(C3CC3)c2C)nc1Nc1ccncc1C(N)=O [Example 2-5-1, 4-[(2-{5-cyclopropyl-4-methyl-1-[(5-methyl-1,3,4-oxadiazol-2-yl)methyl]-1H-pyrazol-3-yl}-5-methoxypyrimidin-4-yl)amino]pyridine-3-carboxamide]
IC50 [1]: 680 nM | IC50 [2]: > 10000 nM
